# Experimental data as given in the Kinase Knowledgebase extract (Sharma et al. 2016).
# Target: EGFR (UniProt P00533)
# Sequence (P00533 whole entry, looked up): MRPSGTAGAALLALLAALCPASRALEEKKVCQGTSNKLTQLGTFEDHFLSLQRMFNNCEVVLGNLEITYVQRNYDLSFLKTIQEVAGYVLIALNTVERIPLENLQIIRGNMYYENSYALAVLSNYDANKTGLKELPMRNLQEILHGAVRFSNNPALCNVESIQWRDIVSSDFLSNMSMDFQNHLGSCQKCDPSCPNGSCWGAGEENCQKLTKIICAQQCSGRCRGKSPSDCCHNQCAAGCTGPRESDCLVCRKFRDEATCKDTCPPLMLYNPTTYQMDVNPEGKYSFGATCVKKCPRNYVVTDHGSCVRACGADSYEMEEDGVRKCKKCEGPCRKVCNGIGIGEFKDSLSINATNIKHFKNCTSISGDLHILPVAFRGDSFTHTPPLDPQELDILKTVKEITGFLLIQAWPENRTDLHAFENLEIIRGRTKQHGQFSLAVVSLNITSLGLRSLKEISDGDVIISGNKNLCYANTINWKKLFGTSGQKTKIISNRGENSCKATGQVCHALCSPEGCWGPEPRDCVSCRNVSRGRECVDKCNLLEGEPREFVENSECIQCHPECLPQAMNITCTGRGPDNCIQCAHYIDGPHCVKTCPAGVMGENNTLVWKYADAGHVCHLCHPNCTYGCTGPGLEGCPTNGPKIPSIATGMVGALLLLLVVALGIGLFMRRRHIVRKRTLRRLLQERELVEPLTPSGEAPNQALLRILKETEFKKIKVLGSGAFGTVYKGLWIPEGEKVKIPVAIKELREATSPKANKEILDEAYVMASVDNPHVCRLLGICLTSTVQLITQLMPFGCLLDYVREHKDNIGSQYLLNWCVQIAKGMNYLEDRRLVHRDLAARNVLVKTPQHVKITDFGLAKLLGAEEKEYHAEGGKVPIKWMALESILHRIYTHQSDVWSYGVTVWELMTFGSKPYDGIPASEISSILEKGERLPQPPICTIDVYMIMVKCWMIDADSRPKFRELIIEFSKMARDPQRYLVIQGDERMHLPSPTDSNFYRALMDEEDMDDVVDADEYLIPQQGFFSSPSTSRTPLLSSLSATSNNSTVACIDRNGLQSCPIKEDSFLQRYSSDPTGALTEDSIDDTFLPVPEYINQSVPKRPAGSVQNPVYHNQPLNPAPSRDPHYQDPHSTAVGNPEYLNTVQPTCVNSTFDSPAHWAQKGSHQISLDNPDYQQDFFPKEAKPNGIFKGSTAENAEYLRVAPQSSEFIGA
row,IC50,SMILES
1,< 10 µM,Cc1ccccc1C1Cc2cnc(Nc3ccccc3)nc2N(c2ccccc2)C1=O (centres undefined)
2,< 10 µM,O=C1C(c2ccncc2)Cc2cnc(Nc3ccccc3)nc2N1c1ccccc1 (centres undefined)
3,< 10 µM,COc1ccc(C2Cc3cnc(Nc4ccccc4)nc3N(CC(C)C)C2=O)cc1 (centres undefined)
4,> 10 µM,O=C1C(c2cc(C(F)(F)F)cc(C(F)(F)F)c2)Cc2cnc(Nc3ccccc3)nc2N1c1ccccc1 (centres undefined)
5,< 10 µM,COc1ccc(C2Cc3cnc(Nc4ccccc4)nc3N(c3ccccc3)C2=O)cc1 (centres undefined)
6,< 10 µM,COc1ccc(C2Cc3cnc(Nc4ccc(OC)nc4)nc3N(c3ccccc3)C2=O)cc1 (centres undefined)
7,< 10 µM,COc1ccc(C2Cc3cnc(Nc4cccnc4)nc3N(CC3CC3)C2=O)cc1 (centres undefined)
8,< 10 µM,COc1ccccc1C1Cc2cnc(Nc3ccccc3)nc2N(c2ccccc2)C1=O (centres undefined)
9,< 10 µM,COc1cc(OC)cc(C2Cc3cnc(Nc4ccccc4)nc3N(c3ccccc3)C2=O)c1 (centres undefined)
10,< 10 µM,O=C1C(c2ccccc2)Cc2cnc(Nc3ccccc3)nc2N1c1ccccc1 (centres undefined)
11,> 10 µM,COc1ccc(C2Cc3cnc(Nc4ccccc4)nc3N(c3ccccc3)C2=O)cc1OC (centres undefined)
12,< 10 µM,COc1ccc(OC)c(C2Cc3cnc(Nc4ccccc4)nc3N(c3ccccc3)C2=O)c1 (centres undefined)
13,< 10 µM,O=C1C(c2cccnc2)Cc2cnc(Nc3ccccc3)nc2N1c1ccccc1 (centres undefined)
14,< 10 µM,O=C1C(c2c(Cl)cccc2Cl)Cc2cnc(Nc3ccccc3)nc2N1c1ccccc1 (centres undefined)
